Laboratory results reported in article PMC5041076, “Ilex kaushue and Its Bioactive Component 3,5-Dicaffeoylquinic Acid Protected Mice from Lipopolysaccharide-Induced Acute Lung Injury” (Scientific Reports, 2016).
Like-named read-outs stand apart in the source and are kept apart here.

Experiments:
[1] = biological target: Human thrombin (Homo sapiens, UniProt P00734); assay: Serine protease enzyme inhibition assay, thrombin
[2] = biological target: T1, Human neutrophil elastase (Homo sapiens, UniProt P08246); assay: Serine protease enzyme inhibition assay, HNE; format: biochemical; conditions: for Inh % (HNE inhibition): at 30 M (so in the source)
T1 construct: purchased Enzo BML-SE284
T1 sequence (P08246 30-267): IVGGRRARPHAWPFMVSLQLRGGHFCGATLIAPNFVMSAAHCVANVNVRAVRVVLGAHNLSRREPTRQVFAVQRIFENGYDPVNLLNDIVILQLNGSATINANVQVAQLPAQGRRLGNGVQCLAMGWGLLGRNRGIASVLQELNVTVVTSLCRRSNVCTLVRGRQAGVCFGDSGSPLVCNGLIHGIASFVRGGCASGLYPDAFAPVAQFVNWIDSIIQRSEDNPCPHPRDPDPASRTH

[3] = system: fMLF/CB-activated neutrophils; assay: O2.- generation in fMLF/CB-activated neutrophils (ferricytochrome c reduction); format: cell-based, human; conditions: fMLF/CB-activated human neutrophils
Method: (§1) All assays were performed as described previously[58],[59]. Neutrophils isolated from the blood of healthy volunteers (20–30 years old) were resuspended in a Ca^2+-free HBSS buffer (pH 7.4) at 4 °C before use. O2^.− generation was measured based on reduction of ferricytochrome c. In brief, after supplementation with 0.5 mg/ml ferricytochrome c and 1 mM Ca^2+, neutrophils were equilibrated at 37 °C for 2 min and incubated with the specified drugs for 5 min. Neutrophils were activated using 30 nM fMLF or 100 nM LTB4 for 10 min after addition of cytochalasin B (CB, 1 μg/mL) for 3 min. Changes in absorbance concomitant with reduction of ferricytochrome c at 550 nm were continuously monitored. For elastase release, neutrophils (6 × 10^5 cells/mL) were mixed with methoxysuccinyl-Ala-Ala-Pro-Val-pNA (100 μM) substrate at 37 °C for 5 min. […] Inhibition of superoxide generation and elastase release were calculated in keeping with previous reports.

[4] = system: fMLF/CB-activated neutrophils; assay: Elastase release in fMLF/CB-activated neutrophils; format: cell-based; conditions: for IC50: read-out: IC50 HNE (NE activity / elastase release)
Method: as §1

[5] = biological target: T2, Human cathepsin G (Homo sapiens, UniProt P08311); assay: Serine protease enzyme inhibition assay, cathepsin G; format: biochemical; conditions: mean ± S.E.M. (n ≥ 3)
T2 construct: purchased Enzo BML-SE283
T2 sequence (P08311 21-255): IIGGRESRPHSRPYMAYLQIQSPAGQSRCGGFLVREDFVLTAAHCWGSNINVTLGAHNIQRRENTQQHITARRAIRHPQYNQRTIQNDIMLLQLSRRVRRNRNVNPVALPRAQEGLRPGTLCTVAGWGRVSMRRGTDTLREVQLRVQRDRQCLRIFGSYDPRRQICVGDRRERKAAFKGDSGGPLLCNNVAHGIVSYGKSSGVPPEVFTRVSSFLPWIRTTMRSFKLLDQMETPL

[6] = biological target: T3, Human proteinase 3 (Homo sapiens, UniProt P24158); assay: Serine protease enzyme inhibition assay, proteinase 3; format: biochemical; conditions: mean ± S.E.M. (n ≥ 3)
T3 construct: purchased Merk 539483
T3 sequence (P24158 28-256): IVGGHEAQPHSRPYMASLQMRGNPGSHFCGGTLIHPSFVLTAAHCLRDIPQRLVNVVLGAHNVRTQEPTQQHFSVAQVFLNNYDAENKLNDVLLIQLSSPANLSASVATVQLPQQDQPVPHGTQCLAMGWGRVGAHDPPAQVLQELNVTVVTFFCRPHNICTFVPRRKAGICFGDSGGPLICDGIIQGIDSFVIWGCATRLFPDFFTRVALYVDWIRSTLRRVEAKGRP

[7] = biological target: T4, Bovine chymotrypsin (Bos taurus, UniProt P00766); assay: Serine protease enzyme inhibition assay, chymotrypsin; format: biochemical; conditions: mean ± S.E.M. (n ≥ 3)
T4 construct: purchased Sigma-Aldrich C4129

[8] = Table S3, read-out: IC50 HNE inhibitory activity
[9] = enzyme assay, mean ± S.E.M. (n ≥ 3), read-out: IC50 HNE
[10] = fMLF/CB-activated human neutrophils
[11] = read-out: IC50 Thrombin, enzyme assay, mean ± S.E.M. (n ≥ 3)

Row | Structure (SMILES) | IC50 [1] | IC50 [2, 8] | IC50 ([3]; Neutrophil) | IC50 O2^.− generation [3] | IC50 ([4]; Homo sapiens, Neutrophil) | Inh % (HNE inhibition) ([2]; Table S3) | IC50 [2, 9] | IC50 [5] | IC50 [6] | IC50 [7] | IC50 [3] | IC50 [4, 10] | IC50 [1, 11] | IC50 ([4]; Neutrophil, fMLF/CB-activated human neutrophils) | selectivity of inhibitory effect among serine proteases ([2]; five serine proteases examined) | IC50 HNE (NE activity / elastase release) [4, 10]
1 | NCCc1ccc(S(=O)(=O)F)cc1 [AEBSF, 4-(2-aminoethyl)-benzenesulphonyl fluoride, reference compound] | 251 ± 8.78 µM |  |  |  |  |  |  |  |  |  |  |  |  |  |  | 
2 | O=C(O)/C=C/c1ccc(O)c(O)c1 [CA, caffeic acid, reference compound] |  | > 30 µM | 1.42 ± 0.02 µM | potently inhibit | > 10 µM |  |  |  |  |  |  |  |  |  |  | 
3 | O=C(C=Cc1ccc(O)c(O)c1)OC1CC(O)(C(=O)O)CC(O)C1O (stereo not shown) [Compound 1] |  |  |  |  |  | -2.99 ± 1.35% | > 30 µM | > 30 µM | > 30 µM | > 30 µM | 1.54 ± 0.29 µM | > 10 µM | > 30 µM |  |  | 
4 | O=C(C=Cc1ccc(O)c(O)c1)OC1C(O)CC(O)(C(=O)O)CC1O (stereo not shown) [Compound 2] |  |  |  |  |  | -3.43 ± 4.85% | > 30 µM | > 30 µM | > 30 µM | > 30 µM | 2.81 ± 1 µM | > 10 µM | > 30 µM |  |  | 
5 | O=C(/C=C/c1ccc(O)c(O)c1)O[C@@H]1C[C@](O)(C(=O)O)C[C@@H](O)[C@H]1O [Compound 3, Chlorogenic acid] | > 30 µM |  | 2.56 ± 1.06 µM |  |  | -4.76 ± 3.36% | > 30 µM | > 30 µM | > 30 µM | > 30 µM |  |  |  | > 10 µM |  | 
6 | O=C(O)C=Cc1cccc(O)c1 [Compound 3-HCA, 3-hydroxycinnamic acid, reference compound] |  | > 30 µM | > 10 µM | non-active | > 10 µM | -3.63 ± 3.91% |  |  |  |  |  |  |  |  |  | 
7 | O=C(/C=C/c1ccc(O)c(O)c1)O[C@H]1[C@H](O)C[C@](O)(C(=O)O)C[C@H]1OC(=O)/C=C/c1ccc(O)c(O)c1 [Compound 4, 3,4-DCQA] |  |  |  |  |  | 9.91 ± 0.99% | > 30 µM | > 30 µM | > 30 µM | > 30 µM | 1.7 ± 0.28 µM | > 10 µM | > 30 µM |  |  | 
8 | O=C(/C=C/c1ccc(O)c(O)c1)O[C@H]1[C@H](O)C[C@](O)(C(=O)O)C[C@H]1OC(=O)/C=C/c1ccc(O)c(O)c1 [Compound 7, 4,5-DCQA] |  |  |  |  |  | 36.42 ± 2.25% | > 30 µM | > 30 µM | > 30 µM | > 30 µM | 1.49 ± 0.38 µM | > 10 µM | > 30 µM |  |  | 
9 | C[C@H]1[C@H](C)CC[C@]2(C(=O)O)CC[C@]3(C)C(=CC[C@@H]4[C@@]5(C)CC[C@H](O)C(C)(C)[C@@H]5CC[C@]43C)[C@H]12 [Compound 9, ursolic acid] | 6.37 ± 0.6 µM |  | 0.99 ± 0.26 µM | good inhibitory effects | 1.07 ± 0.33 µM |  | 11.5 ± 1.28 µM | > 30 µM | 7.33 ± 0.65 µM | 6.06 ± 0.05 µM |  |  |  |  | non-selective inhibitory effects | good inhibitory effects
10 | CC1(C)[C@@H](O)CC[C@]2(C)[C@H]3C=CC4=C5[C@]6(CC[C@](C)(OC6=O)[C@@]5(C)O)CC[C@@]4(C)[C@]3(C)CC[C@@H]12 [Compound 11-1] |  |  |  |  |  |  | > 30 µM | > 30 µM | 7.62 ± 0.32 µM | 8.06 ± 0.4 µM | > 10 µM | > 10 µM | > 30 µM |  |  | 
